Values of other authors in patent US20230304100A1, “METHOD OF PREDICTING THERAPEUTIC RESPONSE AND PROGNOSIS OF METASTATIC BREAST CANCER TO CHEMOTHERAPEUTIC AGENTS, AND TREATING METASTATIC BREAST CANCER” (Samsung Life Public Welfare Foundation, priority 2021, published 2023).

System: premenopausal HR+/HER2− metastatic breast cancer patients
Conditions: Young-PEARL study

In the case of `CCCCCOC(=O)Nc1nc(=O)n([C@@H]2O[C@H](C)[C@@H](O)[C@H]2O)cc1F` [capecitabine], the “median progression-free survival (PFS)” value is listed as 14.4 months.
